From patent US20060110456A1, “Method for biocidal and/or biostatic treatment and compositions therefor” (NATIONAL UNIVERSITY OF SINGAPORE, priority 2004, published 2006)
Counter-ions that a name gives are not always drawn.

What was measured:
[1] = test system: Balanus amphitrite stage II naupliar larvae
Experimental: Pharmaceuticals from the respective manufacturers were treated in the following way. A pill containing a known amount of active ingredient (as stated in product information) was ground in a mortar and pestle and a suspension of 2 mg ml^−1 generated in de-ionized water. This stock solution is stored at −20° C. in 4 ml amber screw cap vials. For the bioassays, 250 ul of stock solution is added to 10 ml of 1 um filtered seawater. This suspension was then sonicated for 10 minutes. Serial dilutions of this 50 μg ml^−1 seawater solution, or suspension, with seawater was done to generate the required range of concentrations.
Stage II naupliar larvae used in tests were obtained from Balanus amphitrite adults collected from inter-tidal rock walls at Kranji mangrove, Singapore. Larvae were collected from a container of adults by attraction to a point source of light and transferred to 500 ml of fresh seawater. Next, larvae were re-concentrated with a fiber optic light and added to assays.
Duplicate assays were conducted in 2 ml micro-centrifuge tubes (Axygen MCT-200-C) in 1.5 ml of filtered seawater for 22 to 24 hours. The assays were repeated for confirmation. There were four controls (vehicle only, 0 μg ml^−1), and 2 tubes of each for each test concentration. The assay was initiated by addition of barnacle nauplii in 50 to 100 μl of seawater.
After 22 to 24 hours of incubation at 25-27° C., solutions containing test animals were transferred to a Bogorov tray and scored as living or dead. Moribund larvae were scored as dead. Results were confirmed by repeating the assay. […] If data were not appropriate for probit analysis, the LC50 was estimated from graphed data.

marine bacteria = assay: Growth assay (absorbance, 96-well plates); assay type: cell-based, marine bacteria isolated from Singapore fouling communities; conditions: 25 μg ml^−1
Experimental: The dried powder was re-suspended in sterile deionized water and made up to 2 mg ml^−1.
The same bacterial strains were used and cultured the same way as in disc inhibition assay. Cells were harvested by centrifugation at 300 rpm for 10 min. The supernatant was discarded and the pellet re-suspended using sterile seawater collected from St. John's island, Singapore. The concentration of bacterial cells was adjusted to an absorbance of approximately 0.6 using a spectrophotometer (Beckman DU530) at wavelength 600 nm.
The growth with response to the pharmaceuticals was assumed to be proportional to the absorbance of the bacteria. […] To each well 25 μl of each drug solution (concentration adjusted to 100 μg ml^−1) were pipetted into three wells followed by 10 μl of broth and 65 μl of sterile seawater. For wells that were to contain bacteria, 60 μl of sterile seawater was used instead. All wells used for growth studies were prepared in triplicate and inoculated with 5 μl of the bacterial suspension. Blanks consisting of the respective volumes of pharmaceutical with Marine Broth and distilled water, if needed, were prepared in triplicate and inoculated with 5 μl of sterile seawater.
The absorbance (A600) of each well was read in a plate reader (Sunrise Tecan Model F039300) immediately (time=0 hours) and after 1, 2, 3, 4, 20, 23 and 28 hours. Plates were incubated overnight inside a moistened airtight container.
Any changes in absorbance were plotted and compared with control. The mean absorbance (mean bac) from the bacteria was obtained by deducting the absorbance values of blank wells (containing seawater and broth only) from that for the control wells (containing bacteria in seawater and broth only). The absorbance arising from the drugs was obtained from the 0 hr reading for wells containing drugs and bacteria, minus the wells with drugs alone (mean “drug”). The growth assays were repeated three times.

Bugula neritina larvae = assay: Bioassay against bryozoan larvae; assay type: in vivo; conditions: crude rank, best (1) to worst (8)
Experimental: Bugula neritina (Phylum Bryozoa, Class Gymnolaemata, Order Cheilostomatida) is a cosmopolitan species of bryozoan, commonly found in most marine fouling communities. The larvae are brooded in ovicells found on the stem of the colonies. When released, the larva will settle quickly on most surfaces, within a few minutes. At 24° C., the settled larvae forms the one-cell ancestrula, and after 48 hours, the lophophore has developed and extended for feeding.
Adult colonies of Bugula neritina were collected from fouling communities growing on the submerged pontoons on a floating fish farm located off Changi, Singapore. Adult animals were maintained in the open-circulation aquarium at St John's island marine laboratory, Singapore. The adults were kept in total darkness for 24 hours. On exposure to light, larvae were released after half an hour. […] Because the larvae will settle quickly, larvae were pipetted directly into test wells in 1 ml of seawater using a graduated glass pipette.
4 replicates were done for each treatment. After 24 hours, larvae were scored as settled, swimming or dead/deformed. The assay plates were usually kept for another 24 hours and checked again, to ascertain that the settled larvae had developed into viable colonies with lophophores. Two trials were repeated for each compound.
Bioassays were carried out using the method described above, in July 2003 during the peak spawning season for Bugula.

CN1CCN(CCCN2c3ccccc3Sc3ccc(C(F)(F)F)cc32)CC1 [TFZ, Trifluoperazine hydrochloride]
LD50 ([1]; barnacle nauplii, 22 to 24 hours, concentration that caused 50% mortality): 9.35 ng/mL | Toxicity to barnacle nauplii and cyprids ([1]; in vivo): very toxic to nauplii and cyprids | Number of strains with strongly inhibited growth (marine bacteria; 25 strains of Table 5): 14 | Inhibition of bacterial growth (marine bacteria; strain 1 (Rhodovulum)): 0 | Inhibition of bacterial growth (marine bacteria; strain 2 (Erythrobacter)): 0 | Inhibition of bacterial growth (marine bacteria; strain 3 (Erythrobacter)): +++ (+++ denotes little or no growth, p < 0.001) | Inhibition of bacterial growth (marine bacteria; strain 4 (Bacillus)): +++ (+++ denotes little or no growth, p < 0.001) | Inhibition of bacterial growth (marine bacteria; strain 6 (Vibrio)): + (+ denotes growth present but inhibited, p < 0.01) | Inhibition of bacterial growth (marine bacteria; strain 7 (Vibrio)): + (+ denotes growth present but inhibited, p < 0.01) | Inhibition of bacterial growth (marine bacteria; strain 8 (Bacillus)): + (+ denotes growth present but inhibited, p < 0.01) | Inhibition of bacterial growth (marine bacteria; strain 9 (Bacillus)): +++ (+++ denotes little or no growth, p < 0.001) | Inhibition of bacterial growth (marine bacteria; strain 10 (Halobacillus)): +++ (+++ denotes little or no growth, p < 0.001) | Inhibition of bacterial growth (marine bacteria; strain 11 (Pseudomonas)): + (+ denotes growth present but inhibited, p < 0.01) | Inhibition of bacterial growth (marine bacteria; strain 12 (Gordonia)): +++ (+++ denotes little or no growth, p < 0.001) | Inhibition of bacterial growth (marine bacteria; strain 13 (Bacillus)): +++ (+++ denotes little or no growth, p < 0.001) | Inhibition of bacterial growth (marine bacteria; strain 14 (Vibrio)): 0 | Inhibition of bacterial growth (marine bacteria; strain 16 (Pseudoalteromonas)): 0 | Inhibition of bacterial growth (marine bacteria; strain 17 (Gordonia)): +++ (+++ denotes little or no growth, p < 0.001) | Inhibition of bacterial growth (marine bacteria; strain 18 (Microbacterium)): +++ (+++ denotes little or no growth, p < 0.001) | Inhibition of bacterial growth (marine bacteria; strain 19 (Erythrobacter)): +++ (+++ denotes little or no growth, p < 0.001) | Inhibition of bacterial growth (marine bacteria; strain 20): + (+ denotes growth present but inhibited, p < 0.01) | Inhibition of bacterial growth (marine bacteria; strain 21): 0 | Inhibition of bacterial growth (marine bacteria; strain 24): + (+ denotes growth present but inhibited, p < 0.01) | Inhibition of bacterial growth (marine bacteria; strain 26): 0 | Inhibition of bacterial growth (marine bacteria; strain 27): +++ (+++ denotes little or no growth, p < 0.001) | Inhibition of bacterial growth (marine bacteria; strain 28): +++ (+++ denotes little or no growth, p < 0.001) | Inhibition of bacterial growth (marine bacteria; strain 29): +++ (+++ denotes little or no growth, p < 0.001) | Inhibition of bacterial growth (marine bacteria; strain 30): +++ (+++ denotes little or no growth, p < 0.001) | Prevention of settlement of Bugula larvae (Bugula neritina larvae): 2
